The record followed here is patent publication US20100249030A1, “ANTI-MITOTIC AGENT AND AURORA KINASE INHIBITOR COMBINATION AS ANTI-CANCER TREATMENT” (Schering Corporation, priority 2007, published 2010).

Holding throughout (assay type): cell-based
For test [1], the system named is phosphorylation of Histone H3 (at serine-10). Description: Inhibition of phosphorylation of Histone H3 (serine-10) stimulated by anti-mitotic agents. The note with it: stimulated by taxanes, KSP inhibitor, and nocodazole. The protocol:
(§1) Single agent Aurora kinase inhibitors require a drug exposure time of 24 hours to induce endoreduplication in asynchronous cells.

In test [2] the test system is HCT-116 colon cancer cells. Description: FACS (flow cytometric) analysis of endoreduplication (>4N DNA content) in HCT-116 colon cancer cells. Here is the method: Asynchronous cells require 24 hour exposure to Aurora kinase inhibitors (such as 250 nM VX-680 or 1000 nM COMPOUND X. (Compound X is disclosed in WO 2008/057512, filed Nov. 6, 2007, Example 4-3 and Claim 70, Example 4-3 and Claim 70 and is shown below and it is represented in Formula H and Table 2, column 2, row 17 of the present application) or 25 nM COMPOUND Z (Compound Z is disclosed in PCT US2008/007295, filed Jun. 11, 2008, Example 76-2 and Claim 25, row 7, column 4 and it is represented in Table 13, compound 76-2 of the present application)) to induce endoreduplication (>4N DNA content) or cell death. For example, HCT-116 colon cancer cells were treated with 1000 nM COMPOUND X or 25 nM COMPOUND Z for the indicated times at which time the drug was washed off and replaced with new media see FIG. 1 and FIG. 8 respectively. Cells were analyzed by FACS after a total of 72 hours.
For example, HCT-116 colon cancer cells were treated with 1000 nM COMPOUND X or 25 nM COMPOUND Z for the indicated times at which time the drug was washed off and replaced with new media see FIG. 2 and FIG. 9 respectively. Cells were analyzed by FACS after a total of 24 hours.
For example, HCT-116 colon cancer cells were treated for 16 hours with DMSO (FIG. 3) or 5 nM taxotere and then exposed to DMSO or 1000 nM COMPOUND X or 25 nM COMPOUND Z for 4, 8, and 24 hours. After 4 or 8 hours, COMPOUND X or COMPOUND Z was washed off and new media was added to the cells. Cells were harvested after 24 hours and analyzed by FACS (see FIG. 4 and FIG. 11 respectively). Following DMSO pretreatment, DMSO had no effect on cell cycle distribution. […] Endoreduplication was observed even when COMPOUND X or COMPOUND Z exposure was as little as 4 hours.
However, following a 16 hour pre-treatment with nocodazole for incrusting, the time required for an Aurora inhibitor (such as 250 nM VX-680 or 1000 nM COMPOUND X or COMPOUND Z) to induce endoreduplication was […]. For example, HCT-116 colon cancer cells were treated for 16 hours with 0.4 μg/ml nocodazole see FIG. 5, and then exposed to DMSO or 1000 nM COMPOUND X or COMPOUND Z for 4, 8 or 24 hours. After 4 or 8 hours, COMPOUND X or COMPOUND Z was washed off and new media was added to the cells. Cells were harvested after 24 hours and analyzed by FACS.
For example, HCT-116 colon cancer cells that were not pretreated, were treated with 5 nM taxotere plus DMSO or 1000 nM COMPOUND X or COMPOUND Z concurrently for 4, 8, or 24 hours. At the indicated time the media was removed and replaced with new media and taxotere was added back into these cells. Cells were harvested after 24 hours and analyzed by FACS see FIG. 6 or FIG. 12 respectively.

Another test has as its system phos-MPM2 marker. Description: Exit from mitosis measured by phos-MPM2 marker after anti-mitotic induced arrest. The note with it: taxane and KSP induced arrest. Here is the method: as §1
Test [3] concerns HCT-116 colon cancer cells. Description: FACS (flow cytometric) analysis of endoreduplication (>4N DNA content) in HCT-116 colon cancer cells. The note with it: after 16 hours 10 nM Ispinesib pretreatment; 1000 nM Compound X / 25 nM Compound Z.

With `CCN(Cc1cc(Nc2nc(C)cn3c(-c4cn[nH]c4)cnc23)sn1)C(C)(C)CO` [Compound Z], in test [1], the “inhibition of phosphorylation of Histone H3 (at serine-10)” value is given as “capable of inhibiting phosphorylation of Histone H3”. Moreover, the endoreduplication result is “induced endoreduplication” in test [2] (16 hours 5 nM taxotere pretreatment, then 1000 nM Compound X or 25 nM Compound Z for 4, 8 and 24 hours, FACS at 24 hours); “induced endoreduplication” in test [2] (16 hours 10 nM Ispinesib (KSP inhibitor) pretreatment, then 1000 nM Compound X or 25 nM Compound Z for 4, 8 and 24 hours, FACS at 24 hours); “induced endoreduplication, but only when COMPOUND X or COMPOUND Z exposure was 24 hours” in test [2] (16 hours DMSO pretreatment, then 1000 nM COMPOUND X or 25 nM COMPOUND Z for 4, 8 and 24 hours, FACS at 24 hours); “insufficient to induce endoreduplication” in test [2] (16 hours nocodazole (0.4 μg/ml) pretreatment, then 4- or 8-hour exposure to Aurora kinase inhibitor, FACS at 24 hours); “induced endoreduplication” in test [2] (16 hours nocodazole (0.4 μg/ml) pretreatment, then 24 hour exposure to Aurora kinase inhibitor, FACS at 24 hours); “not sufficient to induce endoreduplication” in test [2] (Aurora kinase inhibitor given at the same time as 5 nM taxotere, 4 hour exposure, FACS at 24 hours). The endoreduplication result is “not sufficient” in test [2] (Aurora kinase inhibitor given at the same time as 5 nM taxotere, 4 hour exposure, FACS at 24 hours, listed as COMPOUND Z) and “not sufficient to induce endoreduplication” in test [2] (Aurora kinase inhibitor given at the same time as Ispinesib (KSP inhibitor), 4 hour exposure). For the same compound, the “exposure needed to induce endoreduplication” value in test [2] (Aurora kinase inhibitor given at the same time as 5 nM taxotere, no pretreatment) stood at 24 h; in test [2] (Aurora kinase inhibitor given at the same time as Ispinesib (KSP inhibitor)), 24 h. In addition, the “Aurora kinase inhibitor exposure at which endoreduplication was still observed (as little as)” value in test [2] (after 16 hours 5 nM taxotere pretreatment, 1000 nM Compound X / 25 nM Compound Z) is ≤ 4 h; in test [3], ≤ 4 h. Further, the “exposure to Aurora kinase inhibitor required to induce endoreduplication (>4N DNA content) or cell death” value in test [2] (asynchronous cells, single agent, 250 nM VX-680, 1000 nM COMPOUND X, 25 nM COMPOUND Z) was found to be 24 h. For the same compound, in test [2] (following 16 hour pre-treatment with nocodazole, 250 nM VX-680, 1000 nM COMPOUND X or COMPOUND Z), the “time required for Aurora inhibitor to induce endoreduplication, change after pre-treatment” value is reported as “not reduced”. In addition, the “endoreduplication (>4N DNA content)” value in test [2] (single agent, 24 hour exposure, FACS after a total of 24 hours, 250 nM VX-680 / 1000 nM Compound X / 25 nM Compound Z) is listed as “sufficient to induce endoreduplication”; in test [2] (single agent, 24 hour exposure, FACS after a total of 24 hours, 250 nM VX-680 / 1000 nM Compound X / 25 nM Compound Z, listed as COMPOUND Z) it was “resulted in the accumulation of cells that underwent endoreduplication”; in test [2] (single agent, drug exposure for 24, 48, or 72 hours, FACS after a total of 72 hours, 1000 nM Compound X / 25 nM Compound Z), “resulted in the accumulation of cells that underwent endoreduplication”; in test [2] (single agent, exposure less than 24 hours then drug washed off, FACS after a total of 72 hours, 1000 nM Compound X / 25 nM Compound Z) it was “insufficient to induce endoreduplication”; in test [2] (single agent, exposure less than 24 hours then washed off, FACS after a total of 24 hours, 250 nM VX-680 / 1000 nM Compound X / 25 nM Compound Z), “insufficient to induce endoreduplication”. Besides, the “exit from mitosis, as measured by phos-MPM2 marker” value in the test on phos-MPM2 marker is “accelerated the exit from mitosis”.
